The target in test [1] is T1, Tyrosine-protein kinase HCK (Homo sapiens, UniProt P08631). Nature of the test: Inhibition of HCK (75 to 526 residues) (unknown origin) expressed in Sf9 insect cells after 120 mins.
In test [2] the target is T1, Tyrosine-protein kinase HCK. Nature of the test: biochemical.

The results in this text go back to ChEMBL document CHEMBL4052720, “Activity cliff for 7-substituted pyrrolo-pyrimidine inhibitors of HCK explained in terms of predicted basicity of the amine nitrogen” (Bioorg Med Chem, 2017).

Each structure is given as a SMILES string.

T1 sequence (P08631 whole entry, the tested form may be a part): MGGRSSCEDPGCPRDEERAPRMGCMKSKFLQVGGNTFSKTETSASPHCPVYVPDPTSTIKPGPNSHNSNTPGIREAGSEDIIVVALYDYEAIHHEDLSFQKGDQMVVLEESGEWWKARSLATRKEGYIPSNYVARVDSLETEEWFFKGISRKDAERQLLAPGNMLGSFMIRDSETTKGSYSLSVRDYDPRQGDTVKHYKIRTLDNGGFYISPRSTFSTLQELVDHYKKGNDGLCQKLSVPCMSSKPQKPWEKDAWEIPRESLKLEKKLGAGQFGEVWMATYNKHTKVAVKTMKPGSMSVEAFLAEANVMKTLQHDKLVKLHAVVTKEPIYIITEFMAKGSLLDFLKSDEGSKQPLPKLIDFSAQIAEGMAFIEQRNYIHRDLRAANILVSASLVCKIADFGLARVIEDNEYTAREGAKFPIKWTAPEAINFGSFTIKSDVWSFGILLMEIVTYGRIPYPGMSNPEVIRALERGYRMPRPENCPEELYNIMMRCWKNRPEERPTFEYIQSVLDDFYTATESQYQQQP

With `CC(C)C[C@H](N[C@H]1CC[C@H](n2cc(-c3ccc(Oc4ccccc4)cc3)c3c(N)ncnc32)CC1)C(N)=O`, in test [1] (read-out: IC50), the IC50 was determined as 0.21 µM. For the compound `CCOC(=O)[C@H](CC(C)C)N[C@H]1CC[C@H](n2cc(-c3ccc(Oc4ccccc4)cc3)c3c(N)ncnc32)CC1`, the IC50 in test [1] (read-out: IC50) turned out to be 1.32 µM. With `CNC(=O)[C@H](CC(C)C)N[C@H]1CC[C@H](n2cc(-c3ccc(Oc4ccccc4)cc3)c3c(N)ncnc32)CC1`, in test [1] (read-out: IC50), the IC50 came out at 0.111 µM. The same measure, in the same setting: under `CC(C)C[C@H](N[C@H]1CC[C@H](n2cc(-c3ccc(Oc4ccccc4)cc3)c3c(N)ncnc32)CC1)C(=O)O` stands 0.011 µM; under `CC(C)C[C@H](N[C@H]1CC[C@H](n2cc(-c3ccc(Oc4ccccc4)cc3)c3c(N)ncnc32)CC1)C(=O)N(C)C`, 0.686 µM. `CN1CCN([C@H]2CC[C@H](n3cc(-c4ccc(Oc5ccccc5)cc4)c4c(N)ncnc43)CC2)CC1`: the IC50 in test [1] (read-out: pIC50 (converted)) is 0.000427 µM; in test [2] it was 0.00043 µM.
